What was measured:
rat [1] = conditions: Prenatal developmental toxicity study, sprague dawley, Oral, Gavage/Intubation, dose end: 17 GD
dog [2] = conditions: Sub-acute repeat dose toxicity, beagle, Oral, Gavage/Intubation, dose end: 4 week, group: systemic
rat [3] = conditions: Prenatal developmental toxicity study, sprague dawley, Oral, Gavage/Intubation, dose end: 17 GD; remark: listed apart in the source
rabbit = conditions: Prenatal developmental toxicity study, new zealand white, Oral, Gavage/Intubation, dose end: 19 GD
rat [4] = conditions: Sub-acute repeat dose toxicity, sprague dawley, Oral, Gavage/Intubation, dose end: 28 day, group: systemic
rat [5] = conditions: Chronic toxicity; sprague dawley; Oral; Feed; dose end: 52 week; group: systemic; systemic / pathology microscopic / liver / hypertrophy + systemic / pathology microscopic / thyroid gland / colloid content + systemic / …
mouse = conditions: Subchronic oral toxicity in rodents, b6c3f1, Gavage/Intubation, dose end: 17 week, group: systemic
rat [6] = conditions: Subchronic oral toxicity in rodents, fischer, Gavage/Intubation, dose end: 17 week, group: systemic
dog [7] = conditions: Chronic toxicity, beagle, Oral, Feed, dose end: 12 month, group: systemic
rat [8] = conditions: Prenatal developmental toxicity study, sprague dawley, Inhalation, Whole-Body, dose end: 15 GD
rat [9] = conditions: Multigenerational reproductive toxicity study, sprague dawley, Inhalation, Whole-Body, dose end: 2 generation
[10] = group: developmental, systemic / in life observation / body weight / fetal weight
[11] = group: maternal, systemic / in life observation / body weight / body weight gain + systemic / in life observation / food consumption / food consumption + …
[12] = systemic / clinical chemistry / chloride / chloride + systemic / hematology / eosinophils / eosinophils + systemic / hematology / …
[13] = systemic / in life observation / body weight / body weight + systemic / in life observation / clinical signs / defecation (diarrhea) + …
[14] = group: developmental, developmental / developmental malformation / brain / dilated cerebral ventricle
[15] = group: developmental, developmental / developmental malformation / brain / dilated cerebral ventricle + developmental / developmental malformation / bone / …
[16] = group: maternal, reproductive / reproductive performance / postimplantation loss / postimplantation loss + systemic / in life observation / body weight / …
[17] = group: maternal, reproductive / reproductive performance / postimplantation loss / postimplantation loss + reproductive / reproductive performance / …
[18] = systemic / clinical chemistry / alanine aminotransferase (alt/sgpt) / alanine aminotransferase (alt/sgpt) + systemic / clinical chemistry / …
[19] = systemic / hematology / platelet / platelet + systemic / in life observation / clinical signs / hunched posture + systemic / pathology …
[20] = systemic / hematology / leukocyte (wbc) count differential / leukocyte (wbc) + systemic / hematology / lymphocyte / lymphocyte
[21] = systemic / hematology / leukocyte (wbc) count differential / leukocyte (wbc) + systemic / hematology / lymphocyte / lymphocyte + systemic / …
[22] = systemic / in life observation / clinical signs / feces, discoloration
[23] = group: maternal, systemic / in life observation / body weight / body weight + systemic / in life observation / body weight / body weight gain
[24] = group: maternal, systemic / in life observation / body weight / body weight + systemic / in life observation / body weight / body weight gain + systemic / in…
[25] = group: offspring, systemic / in life observation / body weight / offspring (pup) weight gain + systemic / in life observation / body weight / offspring (pup) …
[26] = group: parental, systemic / in life observation / body weight / body weight
[27] = group: reproductive, reproductive / offspring survival early / litter viability other / litter viability + reproductive / reproductive performance / …

N#C[C@@H]1CC(F)(F)CN1C(=O)CNC1CC2CCC(C1)N2c1ncccn1 (stereo partly drawn)
LEL (rat [1]; [10]): 100 mg/kg/day
LOAEL (rat [1]; [10]): 100 mg/kg/day
NEL (rat [1]; [10]): < 100 mg/kg/day
NOAEL (rat [1]; [10]): < 100 mg/kg/day
LEL (rat [1]; [11]): 200 mg/kg/day
LOAEL (rat [1]; [11]): 200 mg/kg/day
NEL (rat [1]; [11]): 100 mg/kg/day
NOAEL (rat [1]; [11]): 100 mg/kg/day
LOAEL (dog [2]; [12]): > 30 mg/kg/day
NOAEL (dog [2]; [12]): ≥ 30 mg/kg/day
LEL (dog [2]; [13]): 3 mg/kg/day
NEL (dog [2]; [13]): < 3 mg/kg/day
LEL (rat [3]; [14]): 100 mg/kg/day
LOAEL (rat [3]; [14]): 100 mg/kg/day
NEL (rat [3]; [15]): 50 mg/kg/day
NOAEL (rat [3]; [15]): 50 mg/kg/day
LOAEL (rat [3]; [16]): 150 mg/kg/day
NEL (rat [3]; [16]): 50 mg/kg/day
NOAEL (rat [3]; [16]): 100 mg/kg/day
LEL (rat [3]; group: maternal, systemic / in life observation / body weight / body weight gain): 100 mg/kg/day
LEL (rabbit; [10]): 500 mg/kg/day
LOAEL (rabbit; [10]): > 1500 mg/kg/day
NEL (rabbit; [10]): < 500 mg/kg/day
NOAEL (rabbit; [10]): ≥ 1500 mg/kg/day
LEL (rabbit; [17]): 500 mg/kg/day
LOAEL (rabbit; [17]): > 1500 mg/kg/day
NEL (rabbit; [17]): < 500 mg/kg/day
NOAEL (rabbit; [17]): ≥ 1500 mg/kg/day
LOAEL (rat [4]; [18]): > 450 mg/kg/day
NOAEL (rat [4]; [18]): ≥ 450 mg/kg/day
LEL (rat [4]; [19]): 50 mg/kg/day
NEL (rat [4]; [19]): < 50 mg/kg/day

C/C=C/C(=O)Oc1ccccc1[N+](=O)[O-].CCCCCCCC.O=NO [Dinocap]
LEL (rat [5]): 121 mg/kg/day
LOAEL (rat [5]): 121 mg/kg/day
NEL (rat [5]): 11.4 mg/kg/day
NOAEL (rat [5]): 11.4 mg/kg/day

c1ccccc1 [Benzene]
LEL (mouse; [20]): 50 mg/kg/day
LOAEL (mouse; [21]): > 600 mg/kg/day
NEL (mouse; [21]): 25 mg/kg/day
NOAEL (mouse; [21]): ≥ 600 mg/kg/day
LEL (rat [6]; [20]): 25 mg/kg/day
NEL (rat [6]; [20]): < 25 mg/kg/day
LOAEL (rat [6]; [21]): > 600 mg/kg/day
NOAEL (rat [6]; [21]): ≥ 600 mg/kg/day

CC1(C)C(=O)N(Cl)C(=O)N1Br [Bromo-3-chloro-5,5-dimethylhydantoin]
LEL (dog [7]; [22]): 120 mg/kg/day
NEL (dog [7]; [22]): < 120 mg/kg/day
LOAEL (dog [7]; systemic / pathology microscopic / adrenal gland / hypertrophy): 1510 mg/kg/day
NOAEL (dog [7]; systemic / pathology microscopic / adrenal gland / hypertrophy + systemic / in life observation / clinical signs / feces, discoloration + …): 342 mg/kg/day

C1CO1 [Ethylene oxide]
LEL (rat [8]; [10]): 50 ppm
LOAEL (rat [8]; [10]): 50 ppm
NEL (rat [8]; [10]): < 50 ppm
NOAEL (rat [8]; [10]): < 50 ppm
LEL (rat [8]; [23]): 125 ppm
LOAEL (rat [8]; [23]): 125 ppm
NEL (rat [8]; [24]): 50 ppm
NOAEL (rat [8]; [24]): 50 ppm
LEL (rat [9]; [25]): 33 ppm
LOAEL (rat [9]; [25]): 33 ppm
NEL (rat [9]; [25]): 10 ppm
NOAEL (rat [9]; [25]): 10 ppm
LEL (rat [9]; [26]): 33 ppm
LOAEL (rat [9]; [26]): 33 ppm
NEL (rat [9]; [26]): 10 ppm
NOAEL (rat [9]; [26]): 10 ppm
LEL (rat [9]; [27]): 33 ppm
LOAEL (rat [9]; [27]): 33 ppm
NEL (rat [9]; [27]): 10 ppm
NOAEL (rat [9]; [27]): 10 ppm

From EPA's ToxRefDB 2
